System: osteoclast formation
Assay: Inhibition rate of furan derivatives versus osteoclast formation (TRAP staining)
Format: cell-based, mice
Conditions: TRAP-positive multinucleated cells, untreated control set as 100%
Experimental: First, bone marrow cells were isolated, as follow. After sacrificing 7-9 week female mice by cervical dislocation, femur and tibia were excised aseptically while removing attached soft tissues. After cutting both ends of long bones, 1 ml of an enzyme solution, containing 0.1% collagenase (Gibco), 0.05% trypsin and 0.5 mM EDTA (Gibco), was injected to the bone marrow cavity at one end using a syringe with a 26-guage needle, and bone marrow was then collected. After shaking the recovered bone marrow for 30 min, bone marrow cells were collected, and cultured in α-minimum essential medium (α-MEM) supplemented with 10% FBS for 24 hrs. Then, non-adherent cells were collected, which are osteoclast pregenitors, aliquotted onto culture plates at a density of 2×10^5 cells per well, and cultured for 8 days in α-MEM supplemented with 20 ng/ml of macrophage-colony stimulating factor (M-CSF, Peprotech, USA) and 30 ng/ml RANKL (Peprotech, USA). During the 8 days of culturing, the cells were treated with the Compound 1. Thereafter, osteoclast formation was investigated by fixing the cultured cells and then carrying out TRAP staining, as described in the following Experimental Example 2.2. In addition, resorption activity of osteoclasts was investigated by measuring the absorption area after removing osteoclasts in cultures in calcium phosphate-coated plates, as described in Experimental Example 2.3, below.
After cell culture, the adherent cells were washed with PBS, and TRAP staining was performed, as follows. After being fixed with citrate-acetate-formaldehyde for 5 min, the cells were incubated for 1 hr in acetate buffer (prewarmed at 37° C., pH 5.0) containing naphthol AS-BI phosphate, fast Garnet GBC and 7 mM tartrate buffer (pH 5.0). TRAP-positive multinucleated cells having 3 or more nuclei were considered as osteoclasts.
Osteoclast pregenitor cells were isolated, and their differentiation to mature osteoclasts was induced, according to the same method as in the Experimental Example 2-1, while treated with each of the furan derivatives of the present invention. According to the same method as in the Experimental Example 2-2, TRAP staining performed, and TRAP-positive multinucleated cells were counted. An inhibition rate of each furan derivative against osteoclast formation was expressed as percentage, wherein the number of stained cells in a control not treated the furan derivative was arbitrarily set as 100% (Tables 14 to 16).

SMILES	Inhibition rate against osteoclast formation, % (0.1 μM) [%]	Inhibition rate against osteoclast formation, % (10 μM) [%]	Inhibition rate against osteoclast formation, % (1 μM) [%]
O=Cc1ccc(COC(=O)Cc2ccc3ccccc3c2)o1 [Compound 38]	0	20	–
Cc1cc(OCc2ccc(C(=O)Nc3cccc(C)c3C)o2)ccc1Cl [Compound 172]	0	–	0
CC(C)(C)c1ccc(OCc2ccc(C(=O)NC3CCCCC3)o2)cc1 [Compound 134]	0	–	0
O=C(O)c1ccc(COc2ccccc2Cl)o1 [Compound 107]	0	32	0
COC(=O)c1ccc(COc2ccc(Cl)cc2[N+](=O)[O-])o1 [Compound 66]	0	–	0
O=Cc1ccc(COC(=O)Cc2c(F)cccc2Cl)o1 [Compound 34]	0	–	–
COC(=O)c1ccc(CNc2ccccc2)o1 [Compound 89]	0	–	0
COC(=O)c1ccc(COc2ccccc2Cl)o1 [Compound 61]	0	–	0
CCCc1ccc(OCc2ccc(C(=O)O)o2)cc1 [Compound 100]	0	–	0
COc1ccc(NC(=O)c2ccc(COc3ccccc3Br)o2)c(OC)c1 [Compound 188]	0	7.6	0
O=C(O)c1ccc(COc2ccc(F)cc2)o1 [Compound 102]	0	–	0
CCN(CC)C(=O)c1ccc(COc2ccc(Cl)c(C)c2)o1 [Compound 123]	0	100	6.9
CC(C)(C)NC(=O)c1ccc(COc2ccccc2Br)o1 [Compound 129]	0	2.2	0
COc1ccc(NC(=O)c2ccc(COc3ccccc3Cl)o2)cc1Cl [Compound 142]	0	–	0
O=C(Nc1ccc(F)c(F)c1)c1ccc(COc2ccc(I)cc2)o1 [Compound 143]	0	–	0
O=C(Oc1ccccc1)c1ccc(COc2ccccc2Cl)o1 [Compound 98]	0	–	0
O=C(O)c1ccc(COc2cccc(Cl)c2)o1 [Compound 112]	0	–	0
O=C(Nc1ccc(F)cc1F)c1ccc(COc2c(F)c(F)cc(F)c2F)o1 [Compound 185]	0	–	0
O=Cc1ccc(COC(=O)Nc2ccc(Cl)c(Cl)c2)o1 [Compound 54]	0	10	0
COC(=O)c1ccc(CNC(C)(C)C)o1 [Compound 91]	0	–	0
COC(=O)c1ccc(COc2ccc(Cl)cc2)o1 [Compound 80]	0	–	0
Cc1ccc(OCc2ccc(C(=O)Nc3ccc(F)c(F)c3)o2)cc1C [Compound 186]	0	–	0

SMILES	Inhibition rate against osteoclast formation, % (0.1 μM) [%]	Inhibition rate against osteoclast formation, % (10 μM) [%]	Inhibition rate against osteoclast formation, % (1 μM) [%]
O=C(O)c1ccc(COc2cccc3ccccc23)o1 [Compound 117]	0	–	0
CCCc1ccc(OCc2ccc(C(=O)Nc3cc(Cl)ccc3Cl)o2)cc1 [Compound 170]	0	–	0
C=CCc1ccc(OCc2ccc(C(=O)OC)o2)c(OC)c1 [Compound 59]	0	–	0
Cc1cc(OCc2ccc(C(=O)N3CCOCC3)o2)ccc1Cl [Compound 132]	0	–	0
Cc1cc(OCc2ccc(C(=O)Nc3ccc(Cl)cc3)o2)ccc1Cl [Compound 173]	0	–	0
O=Cc1ccc(COC(=O)Cc2ccccc2)o1 [Compound 32]	0	50	–
COc1ccccc1OCc1ccc(C(=O)OC(C)C)o1 [Compound 94]	0	5.9	0
O=Cc1ccc(COC(=O)Cc2cccc(F)c2)o1 [Compound 37]	0	–	10
COc1ccc(C)cc1NC(=O)c1ccc(COc2cccc(Cl)c2)o1 [Compound 171]	0	0.42	0
O=C(Nc1ccccc1)c1ccc(COc2ccc3ccccc3c2)o1 [Compound 137]	0	–	0
COc1ccccc1OCc1ccc(C(=O)Nc2ccccc2Cl)o1 [Compound 174]	0	–	0
NC(=O)c1ccc(NC(=O)c2ccc(COc3cc(Cl)ccc3Cl)o2)cc1 [Compound 148]	0	–	–
O=C(Nc1cccc([N+](=O)[O-])c1)c1ccc(COc2ccc(I)cc2)o1 [Compound 191]	0	–	0
O=Cc1ccc(COC(=O)Nc2ccc(Br)cc2)o1 [Compound 50]	0	0	10
COC(=O)c1ccc(CN(C)C)o1 [Compound 85]	0	–	0
CCc1cccc(NC(=O)c2ccc(COc3ccc(F)cc3)o2)c1 [Compound 163]	0	–	0
Cc1ccc(F)c(NC(=O)c2ccc(COc3ccccc3[N+](=O)[O-])o2)c1 [Compound 158]	0	–	0
CCC(C)NC(=O)c1ccc(COc2ccc(I)cc2)o1 (centres unmarked) [Compound 121]	0	–	0
O=C(Nc1ccc(Br)cc1)c1ccc(COc2ccc(I)cc2)o1 [Compound 146]	0	–	0
O=C(Nc1ccc(I)cc1)c1ccc(COc2ccccc2Br)o1 [Compound 190]	0	–	0
O=C(Nc1cc(C(F)(F)F)ccc1Cl)c1ccc(COc2ccc(Cl)cc2)o1 [Compound 181]	0	–	0

Reference: patent publication US20080221205A1, “FURAN DERIVATIVES FOR PREVENTING AND CURING OSTEOPOROSIS AND PHARMACEUTICAL COMPOSITIONS CONTAINING THE SAME” (priority 2002, published 2008)
